# In patent publication US10752588B2 (The Broad Institute, Inc., priority 2014, dated 2020):
# What was measured:
# human D2R/β-arrestin [1] = target: T1, human D2R/β-arrestin (Homo sapiens (Human), UniProt P14416); test: β-Arrestin agonist assay (PathHunter); type: cell-based; conditions: CHO-K1 cell line expressing human D2R/β-arrestin
# How it was run: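 After compound incubation, detection reagent (Buffer:Emerald II:Galactor-Star, 19:5:1) added and luminescence or fluorescence read.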
# human D2R/β-arrestin [2] = target: T1, human D2R/β-arrestin; test: cell-based; conditions: cAMP Antagonist, CHO-K1 cell line expressing human D2R/β-arrestin; quinpirole used as agonist
# human D2R/β-arrestin [3] = target: T1, human D2R/β-arrestin; test: cell-based; conditions: β-arrestin Antagonist, CHO-K1 cell line expressing human D2R/β-arrestin; quinpirole used as agonist
# human D2R/β-arrestin [4] = target: T1, human D2R/β-arrestin; test: Gi/cAMP agonist assay (Lance Ultra cAMP, Forskolin); type: cell-based; conditions: CHO-K1 cell line expressing human D2R/β-arrestin
# How it was run: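 Cells were plated and incubated before compounds were pin-transferred and incubated for 10 min at 37 °C. Forskolin was then added to stimulate cAMP. cAMP was detected by Lance Ultra TR-FRET using Eu-cAMP tracer and ULight-anti-cAMP antibody.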
# T1 sequence (P14416 whole entry): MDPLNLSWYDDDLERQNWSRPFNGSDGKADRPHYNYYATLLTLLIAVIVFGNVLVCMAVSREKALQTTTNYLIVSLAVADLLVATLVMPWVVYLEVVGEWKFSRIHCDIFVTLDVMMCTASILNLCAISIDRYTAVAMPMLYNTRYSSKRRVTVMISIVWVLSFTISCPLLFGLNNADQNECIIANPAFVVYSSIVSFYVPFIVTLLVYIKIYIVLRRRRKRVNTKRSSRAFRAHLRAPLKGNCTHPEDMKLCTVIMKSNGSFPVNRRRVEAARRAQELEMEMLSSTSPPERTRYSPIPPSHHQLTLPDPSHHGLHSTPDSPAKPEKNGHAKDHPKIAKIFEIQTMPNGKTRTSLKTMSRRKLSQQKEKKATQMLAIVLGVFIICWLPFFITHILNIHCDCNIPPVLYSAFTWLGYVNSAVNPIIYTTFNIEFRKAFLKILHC
Structure (SMILES),EC50 (human D2R/β-arrestin [1]) [nM],IC50 (human D2R/β-arrestin [2]) [nM],IC50 (human D2R/β-arrestin [3]) [nM],EC50 (human D2R/β-arrestin [4]) [nM]
"FC(F)(F)c1ccccc1OCCN1CCC(CNC(c2ccc(Cl)cc2)c2ccccn2)CC1 (stereo not drawn) [Compound 120, 1-(4-chlorophenyl)-1-(pyridin-2-yl)-N-((1-(2-(2-(trifluoromethyl)phenoxy)ethyl)piperidin-4-yl)methyl)methanamine]",> 30000,< 100,< 100,> 30000
"Fc1ccccc1OCCN1CCC(CNC(c2ccc(Cl)cc2)c2ccccn2)CC1 (stereo not drawn) [Compound 121, 1-(4-chlorophenyl)-N-((1-(2-(2-fluorophenoxy)ethyl)piperidin-4-yl)methyl)-1-(pyridin-2-yl) methanamine]",> 30000,100 to 1000,100 to 1000,> 30000
"Fc1ccc(C(NCC2CCN(CCOc3ccccc3F)CC2)c2ccccn2)cc1 (stereo not drawn) [Compound 122, N-((1-(2-(2-fluorophenoxy)ethyl)piperidin-4-yl)methyl)-1-(4-fluorophenyl)-1-(pyridin-2-yl) methanamine]",> 30000,100 to 1000,100 to 1000,1000 to 10000
"O=C(NC(c1ccc(Cl)cc1)c1ccccc1F)C1CCN(CCOc2cc(F)ccc2F)CC1 (stereo not drawn) [Compound 123, N-((4-chlorophenyl)(2-fluorophenyl)methyl)-1-(2-(2,5-difluorophenoxy)ethyl) piperidine-4-carboxamide]",> 30000,> 30000,100 to 1000,< 100
"O=C(NC1CCN(CCOc2ccccc2)CC1)C(c1ccc(Cl)cc1)c1ccccn1 (stereo not drawn) [Compound 126, 2-(4-chlorophenyl)-N-(1-(2-phenoxyethyl)piperidin-4-yl)-2-(pyridin-2-yl)acetamide]",> 30000,> 30000,1000 to 10000,< 100
"COc1cccc(C(NC(=O)C2CCN(CCOc3ccccc3)CC2)c2cocn2)c1 (stereo not drawn) [Compound 129, N-((3-methoxyphenyl)(oxazol-4-yl)methyl)-1-(2-phenoxyethyl)piperidine-4-carboxamide]",> 30000,> 30000,> 30000,1000 to 10000
"O=C(NC(c1ccc2c(c1)OC(F)(F)O2)c1ccccn1)C1CCN(CCOc2ccc(F)cc2F)CC1 (stereo not drawn) [Compound 130, N-((2,2-difluorobenzo[d][1,3]dioxol-5-yl)(pyridin-2-yl)methyl)-1-(2-(2,4-difluorophenoxy)ethyl)piperidine-4-carboxamide]",100 to 1000,> 30000,1000 to 10000,< 100
"CN(CC1(C)CCN(CCOc2ccccc2)CC1)C(c1ccc(Cl)cc1)c1ccccn1 (stereo not drawn) [Compound 131, 1-(4-chlorophenyl)-N-methyl-N-((4-methyl-1-(2-phenoxyethyl)piperidin-4-yl)methyl)-1-(pyridin-2-yl)methanamine]",1000 to 10000,> 30000,1000 to 10000,< 100
"Fc1ccc(OCCN2CCC(CNC(c3ccc(Cl)cc3)c3ccccn3)CC2)cc1 (stereo not drawn) [Compound 132, 1-(4-chlorophenyl)-N-((1-(2-(4-fluorophenoxy)ethyl)piperidin-4-yl)methyl)-1-(pyridin-2-yl)methanamine]",> 30000,1000 to 10000,1000 to 10000,> 30000
"CC(C)N(CC1CCN(CCOc2ccccc2F)CC1)C(c1ccc(Cl)cc1)c1ccccn1 (stereo not drawn) [Compound 133, N-((4-chlorophenyl)(pyridin-2-yl)methyl)-N-((1-(2-(2-fluorophenoxy)ethyl)piperidin-4-yl)methyl)propan-2-amine]",> 30000,< 100,< 100,< 100
"COc1cccc(C(c2ccccn2)N(CC2CCN(CCOc3ccccc3F)CC2)C(C)C)c1 (stereo not drawn) [Compound 134, N-((1-(2-(2-fluorophenoxy)ethyl)piperidin-4-yl)methyl)-N-((3-methoxyphenyl)(pyridin-2-yl)methyl)propan-2-amine]",> 30000,100 to 1000,100 to 1000,< 100
"Fc1ccccc1OCCN1CCC(CN(CC(F)(F)F)C(c2ccc(Cl)cc2)c2ccccn2)CC1 (stereo not drawn) [Compound 136, N-((4-chlorophenyl)(pyridin-2-yl)methyl)-2,2,2-trifluoro-N-((1-(2-(2-fluorophenoxy)ethyl)piperidin-4-yl)methyl)ethan-1-amine]",> 30000,< 100,< 100,1000 to 10000
"CN(CC1CCN(CCOc2ccccc2F)CC1)C(c1ccc2c(c1)OCO2)c1ccccn1 (stereo not drawn) [Compound 138, 1-(benzo[d][1,3]dioxol-5-yl)-N-((1-(2-(2-fluorophenoxy)ethyl)piperidin-4-yl)methyl)-N-methyl-1-(pyridin-2-yl)methanamine]",> 30000,> 30000,100 to 1000,100 to 1000
"Fc1ccccc1OCCN1CCC(CNC(c2ccc3c(c2)OCO3)c2ccccn2)CC1 (stereo not drawn) [Compound 139, 1-(benzo[d][1,3]dioxol-5-yl)-N-((1-(2-(2-fluorophenoxy)ethyl)piperidin-4-yl)methyl)-1-(pyridin-2-yl)methanamine]",> 30000,100 to 1000,1000 to 10000,1000 to 10000
"O=C(NC(c1ccc(Cl)cc1)c1ccccn1)C1CCN(CC2COc3ccccc3O2)CC1 (stereo not drawn) [Compound 140, N-((4-chlorophenyl)(pyridin-2-yl)methyl)-1-((2,3-dihydrobenzo[b][1,4]dioxin-2-yl)methyl)piperidine-4-carboxamide]",> 30000,1000 to 10000,1000 to 10000,1000 to 10000
"O=C(NC(c1ccc(Cl)cc1)c1ccccn1)C1CCN(CCOc2ccccn2)CC1 (stereo not drawn) [Compound 141, N-((4-chlorophenyl)(pyridin-2-yl)methyl)-1-(2-(pyridin-2-yloxy)ethyl)piperidine-4-carboxamide]",> 30000,1000 to 10000,1000 to 10000,> 30000
"O=C(NC(c1ccc(Cl)cc1)c1ccccn1)C1CCN(CCOc2ccncc2)CC1 (stereo not drawn) [Compound 142, N-((4-chlorophenyl)(pyridin-2-yl)methyl)-1-(2-(pyridin-4-yloxy)ethyl)piperidine-4-carboxamide]",> 30000,10000 to 30000,10000 to 30000,> 30000
"COc1cccc(C(NC(=O)C2(C)CCN(CCOc3ccccc3)CC2)c2ccccn2)c1 (stereo not drawn) [Compound 143, N-((3-methoxyphenyl)(pyridin-2-yl)methyl)-4-methyl-1-(2-phenoxyethyl)piperidine-4-carboxamide]",1000 to 10000,> 30000,1000 to 10000,100 to 1000
"CC1(C(=O)NC(c2ccc(Cl)cc2)c2ccccn2)CCN(CCOc2ccccc2)CC1 (stereo not drawn) [Compound 144, N-((4-chlorophenyl)(pyridin-2-yl)methyl)-4-methyl-1-(2-phenoxyethyl)piperidine-4-carboxamide]",< 100,> 30000,< 100,< 100
"COc1cccc(C(NC(=O)C2CCN(CCOc3ccc(F)cc3F)CC2)c2ccccn2)c1 (stereo not drawn) [Compound 145, 1-(2-(2,4-difluorophenoxy)ethyl)-N-((3-methoxyphenyl)(pyridin-2-yl)methyl)piperidine-4-carboxamide]",> 30000,1000 to 10000,1000 to 10000,10000 to 30000
"Oc1c(CN2CCN(c3ccccn3)CC2)cc(Cl)c2cccnc12 [MLS1547, reference compound]",> 30000,> 30000,1000 to 10000,< 100
